The text below walks through data of patent US6335339B1, “Triazine antiviral compounds” (Scriptgen Pharmaceuticals, Inc., priority 1998, dated 2002).

Some results are limits rather than exact numbers.

This series concerns 2.2.15 cells. As to the kind of experiment: neutral red dye uptake cytotoxicity. The series is classed as cell-based. To be noted: 9 days treatment, read-out: 50% Cell Death CC50. As for the experimental part: Further, the antiviral effect of any compound must be measured against its toxicity. Cytotoxicity is measured by the neutral red uptake method using the same cells used for antiviral activity.
2b. Compounds were prepared for toxicity treatment as follows: For each compound, a total of 4 concentrations were examined. This required 9 sets of 4 sterile, 1.1 ml minitubes (36 tubes per compound). Into the first tube of each set, sufficient compound was aliquoted to make up 465 μl of the highest test concentration. The other tubes were left empty. The tubes were covered with the rack lids, and stored at −20° C. or at an appropriate temperature. Tubes for the last day of treatment for toxicity testing contain the same amount of compound as used the previous days (not 3xas for the antiviral assays).
3b. The cytotoxicity of test compounds was analyzed in a 3.3-fold dilution series as follows. […] (155 μl×3) of RP2 were added to the first tube (containing the aliquot of compound) and 310 μL (155 μl×2) RP2 to each of the 3 remaining tubes. 150 μl of test compound-containing medium were serially transferred from the first tube to the other 3 tubes.
5. A single plate was used for the toxicity treatments for each test compound (up to 7 compounds per plates since the top row were reserved for untreated cells on every toxicity plate). To initiate the treatments, the culture medium was removed, and 100 μl of each dilution of every compound were added to each of 3 wells using a configuration similar to that shown above for the antiviral treatments. The untreated cells received 100 μl RP2 per well. Treatment was repeated daily for 9 days.
The antiviral effect of any compound was evaluated relative to its toxicity. Cells were seeded and treated following the guidelines above, after which a neutral red dye uptake assay was performed to assess toxicity as described below. Other assays of cytotoxicity (e.g., MTT) can be substituted for the procedure described below. Note that this procedure assesses toxicity under culture and treatment conditions which are identical to those used for the antiviral analyses, thereby permitting a determination as to whether the reduction in virus production due to a specific antiviral effect or due to a cytotoxic effect on the host cell. Since the cultures, by necessity, are at confluence, the cytotoxic effects of the test compounds will probably be reduced relative to the cytotoxic effects that would be expected for actively dividing cells.
1. Cultures were treated with test compounds on the designated toxicity plates as described above.
2. The culture medium was carefully removed 24 hours following the 9th day of treatment. The monolayer was fully removed in the top left three wells (row A, col. 1-3). These wells were used as “blanks” for the plate reader.
3. 100 μl DPBS (containing 0.01% neutral red dye) were added to each well, including the empty wells, and Incubated in the tissue culture incubator for 30 minutes.
4. The dye was removed carefully and gently, using a multichannel pipetman since the monolayers can become fragile after incubation with neutral red dye. 200 μl DPBS were added to all the wells taking care not to displace the monolayers. The DPBS was removed and 100 μl 50% EtOH/1% glacial acetic acid (in H2O) were added to each well. The plates were mixed for 15 minutes on an orbital platform shaker (120-150 RPM) to allow for full extraction of the dye from the cells.
5. Optical absorbance at 510 nm was read in an ELISA type plate reader, using the 3 empty wells to set the background. An average absorbance value was calculated for the 9 untreated cultures on a plate, and the absorbance of dye for the treated cultures on the same plate was expressed as a percentage of that value. This procedure was repeated for each individual plate. […]
The CC50 is the concentration that lowers cell viability or growth by half. As to `COc1c(C=NNc2nc(Nc3ccccc3)nc(Nc3ccccc3)n2)ccc(Br)c1O` [Compound 168], the CC50 was more than 300 µM. Turning to `Cc1ccc(Nc2nc(NN=Cc3ccccc3)nc(Nc3ccccc3)n2)cc1` [Compound 25], the CC50 is 105 µM. The result for `CCCCN(CCCC)c1nc(NN=Cc2ccc([N+](=O)[O-])cc2)nc(Nc2ccc([N+](=O)[O-])cc2)n1` [Compound 5] reads 307 µM; that for `CCN(CC)c1nc(NN=Cc2ccc(Cl)c([N+](=O)[O-])c2)nc(Nc2cc(C)ccc2C)n1` [Compound 214], more than 300 µM. `Cc1ccccc1Nc1nc(NN=Cc2ccc(I)cc2)nc(Nc2ccc([N+](=O)[O-])cc2)n1` [Compound 10]: the CC50 was more than 300 µM. The result for `Oc1ccc2ccccc2c1C=NNc1nc(Nc2cccc3ccccc23)nc(N2CCOCC2)n1` [Compound 167] reads 161 µM; that for `Cc1ccc(Nc2nc(Nc3cccc(C(F)(F)F)c3)nc(N3CCOCC3)n2)cc1C` [Compound 251], 96 µM.

For `Cc1ccc(Nc2nc(NN=Cc3ccc(Cl)cc3)nc(N3CCOCC3)n2)cc1` [Compound 249], the CC50 was determined as 134 µM. As for `COc1ccc(C=NNc2nc(NCc3ccccc3)nc(Nc3ccccc3)n2)cc1` [Compound 165], the CC50 is more than 300 µM. `FC(F)(F)c1cccc(Nc2nc(NN=Cc3ccc(Cl)cc3)nc(N3CCOCC3)n2)c1` [Compound 120]: the CC50 came out at 45 µM. `CCCCN(CCCC)c1nc(NN=Cc2ccc(Cl)cc2)nc(Nc2ccc([N+](=O)[O-])cc2)n1` [Compound 16]: the CC50 came to 304 µM. In the case of `COc1ccc(Nc2nc(NN=Cc3ccc(O)cc3O)nc(Nc3ccccc3)n2)cc1` [Compound 158], the half-maximal cytotoxic concentration (CC50) worked out at 112 µM.

Consider `Cc1ccc(C=NNc2nc(Nc3ccc([N+](=O)[O-])cc3)nc(Nc3ccccc3C)n2)cc1` [Compound 15], for which the CC50 amounted to 0.6 µM. For `COc1ccc(Nc2nc(NCc3cccc([N+](=O)[O-])c3)nc(NCc3cc(F)ccc3F)n2)cc1OC` [Compound 225], the CC50 amounted to 281 µM.

For the compound `CN(C)c1nc(NCc2ccccc2)nc(NCc2cccs2)n1` [Compound 192], the CC50 turned out to be 739 µM. The same measure for `Cc1ccc(Nc2nc(NCc3ccccc3)nc(Nc3ccc([N+](=O)[O-])cc3)n2)cc1C` [Compound 194]: 626 µM; for `COc1cccc(C=NNc2nc(Nc3ccccc3)nc(N3CCCC3)n2)c1O` [Compound 170]: 499 µM; for `COc1ccc(Nc2nc(NCCc3ccccc3)nc(N(C)C)n2)cc1OC` [Compound 252]: 61 µM. `O=[N+]([O-])c1ccc(Nc2nc(NCc3ccccc3)nc(N3CCOCC3)n2)cc1` [Compound 231]: the CC50 stood at 218 µM. The same measure for `CCCCN(CCCC)c1nc(N/N=C/c2cc(I)cc(I)c2O)nc(Nc2ccc([N+](=O)[O-])cc2)n1` [Compound 8]: 196 µM; for `COc1c(C=NNc2nc(N3CCCC3)nc(N3CCOCC3)n2)cccc1[N+](=O)[O-]` [Compound 193]: 666 µM.

For the compound `Cc1ccc(Nc2nc(NN=Cc3ccccc3O)nc(Nc3ccc([N+](=O)[O-])cc3)n2)cc1C` [Compound 12], the CC50 was 77 µM.

On to `Cc1ccc(Nc2nc(NN=Cc3cccc(I)c3)nc(Nc3ccccc3)n2)cc1` [Compound 30], for which the CC50 is 230 µM. On to `Oc1ccc(Br)cc1C=NNc1nc(Nc2cccc(C(F)(F)F)c2)nc(N2CCOCC2)n1` [Compound 246], for which the CC50 was found to be 141 µM. Consider `CCN(CC)c1nc(Nc2cccc(Br)c2)nc(Nc2cc(C)ccc2C)n1` [Compound 202], for which the CC50 was more than 300 µM. As to `Cc1ccc(Nc2nc(NCc3ccccc3)nc(NN=Cc3cc(Cl)ccc3O)n2)cc1C` [Compound 226], the CC50 was 280 µM. `Cc1ccc(Nc2nc(NNC(=O)c3ccccc3O)nc(Oc3ccc([N+](=O)[O-])cc3)n2)cc1C` [Compound 250]: the CC50 was determined as 123 µM. As for `Ic1cccc(C=NNc2nc(Nc3ccc4ccccc4c3)nc(N3CCOCC3)n2)c1` [Compound 166], the CC50 was determined as 252 µM. For the compound `Oc1ccc(Br)cc1C=NNc1nc(Nc2cccc(Br)c2)nc(N2CCOCC2)n1` [Compound 232], the CC50 was 190 µM.

Take `COc1ccc(Nc2nc(NN=Cc3ccc(O)cc3O)nc(N3CCOCC3)n2)cc1` [Compound 164]: the CC50 is 201 µM. In the case of `CCCCN(CCCC)c1nc(NN=Cc2ccc(OCC)c(O)c2)nc(Nc2ccc([N+](=O)[O-])cc2)n1` [Compound 23], the CC50 worked out at 145 µM. Take `COc1ccc(Br)cc1/C=N/Nc1nc(Nc2cccc([N+](=O)[O-])c2)nc(N2CCOCC2)n1` [Compound 28]: the CC50 amounted to 33 µM. The result for `COc1ccc(Nc2nc(NN=Cc3ccc(Cl)cc3)nc(Nc3ccccc3)n2)cc1` [Compound 22] reads 47 µM; that for `CC(=NNc1nc(Nc2ccccc2)nc(N2CCCC2)n1)c1ccc([N+](=O)[O-])cc1` [Compound 183], more than 300 µM; that for `COc1c(Br)cc(Br)cc1C=NNc1nc(Nc2ccccc2)nc(N2CCCCC2)n1` [Compound 14], more than 100 µM. The result for `Cc1ccccc1Nc1nc(NN=Cc2ccc3c(c2)OCO3)nc(Nc2ccc([N+](=O)[O-])cc2)n1` [Compound 29] reads 15 µM. The result for `O=[N+]([O-])c1ccc(Nc2nc(NCc3ccccc3)nc(NN=Cc3ccccc3)n2)cc1` [Compound 24] reads 75 µM. As for `Cc1ccc(Nc2nc(NN=Cc3cccc([N+](=O)[O-])c3)nc(Nc3ccccc3)n2)c(C)c1` [Compound 229], the CC50 stood at 237 µM. For `Cc1ccc(Nc2nc(NN=Cc3ccccc3)nc(Nc3ccccc3)n2)c(C)c1` [Compound 7], the CC50 worked out at 29 µM.

`CNc1nc(NN=Cc2ccccc2C(F)(F)F)nc(Nc2cccc(C(F)(F)F)c2)n1` [Compound 253]: the CC50 stood at 193 µM.

Regarding `FC(F)(F)c1cccc(Nc2nc(Nc3cccc(Cl)c3)nc(N3CCOCC3)n2)c1` [Compound 247], the CC50 came to 136 µM. As for `Cc1[nH]c2ccccc2c1C=NNc1nc(Nc2ccccc2)nc(Nc2ccc([N+](=O)[O-])cc2)n1` [Compound 6], the CC50 was 29 µM. Regarding `Cc1ccc(Nc2nc(NCc3ccccc3)nc(NN=Cc3ccc(F)cc3F)n2)cc1C` [Compound 191], the CC50 came out at 836 µM. On to `Oc1ccc(Cl)cc1C=NNc1nc(Nc2ccc3ccccc3c2)nc(N2CCOCC2)n1` [Compound 160], for which the CC50 is more than 300 µM. For `Fc1cccc(C=NNc2nc(Nc3ccccc3)nc(N3CCCC3)n2)c1` [Compound 201], the CC50 is more than 300 µM. As for `COc1c(C=NNc2nc(NCc3ccccc3)nc(Nc3ccccc3)n2)cccc1[N+](=O)[O-]` [Compound 162], the CC50 came to 436 µM. The result for `Cc1ccc(Nc2nc(NN=Cc3ccc(I)cc3)nc(Nc3ccccc3)n2)c(C)c1` [Compound 113] reads more than 300 µM. Regarding `CC(=NNc1nc(Nc2ccccc2)nc(N2CCCC2)n1)c1ccc(F)cc1` [Compound 227], the CC50 was determined as 247 µM. In the case of `Cc1ccc(Nc2nc(NN=Cc3ccc(Cl)cc3)nc(N3CCOCC3)n2)cc1Cl` [Compound 196], the CC50 was 381 µM. The result for `C(=Cc1ccccc1)C=NNc1nc(Nc2ccccc2)nc(Nc2ccccc2)n1` [Compound 125] reads 265 µM.

With `Brc1cccc(C=NNc2nc(Nc3ccccc3)nc(N3CCOCC3)n2)c1` [Compound 163], the CC50 was 150 µM. Take `Cc1ccc(Nc2nc(NN=Cc3ccc(O)cc3O)nc(Nc3ccc([N+](=O)[O-])cc3)n2)cc1C` [Compound 9]: the CC50 was determined as 175 µM. For the compound `Brc1ccc(Nc2nc(NCc3ccccc3)nc(Nc3ccc(Br)cc3)n2)cc1` [Compound 230], the CC50 was 231 µM. For the compound `Oc1ccccc1C=NNc1nc(Nc2ccccc2)nc(N2CCCCC2)n1` [Compound 169], the CC50 is more than 300 µM. For `Cc1ccc(Nc2nc(NCc3ccccc3)nc(NN=Cc3cc(Br)cc(Br)c3O)n2)cc1C` [Compound 219], the CC50 was more than 300 µM. Regarding `Cc1ccc(Nc2nc(NCc3cc(F)ccc3F)nc(Nc3ccc([N+](=O)[O-])cc3)n2)cc1C` [Compound 248], the CC50 came out at 135 µM. On to `O=C(NNc1nc(Nc2ccccc2)nc(Nc2cccc(C(F)(F)F)c2)n1)c1cccc(Br)c1` [Compound 220], for which the CC50 is more than 300 µM.
